This is an account of results in patent US10640506B2, “Cyclobutyl substituted pyrrolopyridine and pyrrolopyrimidines derivatives as JAK inhibitors” (Incyte Corporation, priority 2010, dated 2020).

As a reminder, the IC50 is the midpoint of a concentration-inhibition curve.

Structures are written as SMILES. Counter-ions that a name gives are not always drawn. Like-named read-outs stand apart in the source and are kept apart here.

One test has as its target T1, JAK2 (a.a. 828-1132) (Homo sapiens, UniProt O60674).
T1 construct: JAK2 (a.a. 828-1132); His tag (N)
Put plainly: In vitro JAK kinase assay (HTRF, phosphorylation of biotinylated peptide), JAK2. Conditions: 1 mM ATP, read-out: JAK2 IC50. The format is biochemical. In outline:
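His-tagged catalytic domains of human JAK1 (a.a. 837-1142) and JAK2 (a.a. 828-1132), baculovirus-expressed, phosphorylate a biotinylated peptide for 1 hour at room temperature. Stopped with EDTA; detected by HTRF using SA-APC and Eu-Py20 antibody after 40 min binding; values binned as ranges.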

In test [1] the target is human JAK1 (a.a. 837-1142) (Homo sapiens, UniProt P23458). Put plainly: In vitro JAK kinase assay (HTRF, phosphorylation of biotinylated peptide), JAK1. Conditions: 1 mM ATP, read-out: JAK1 IC50. The format is biochemical. In outline:
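His-tagged human JAK1 catalytic domain (a.a. 837-1142), baculovirus/insect-cell expressed, phosphorylates a biotinylated peptide for 1 h at room temperature. Reaction stopped with EDTA; product detected by HTRF (SA-APC, Eu-Py20, 40 min binding). IC50 reported as ranges.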

T1 sequence (O60674 828-1132): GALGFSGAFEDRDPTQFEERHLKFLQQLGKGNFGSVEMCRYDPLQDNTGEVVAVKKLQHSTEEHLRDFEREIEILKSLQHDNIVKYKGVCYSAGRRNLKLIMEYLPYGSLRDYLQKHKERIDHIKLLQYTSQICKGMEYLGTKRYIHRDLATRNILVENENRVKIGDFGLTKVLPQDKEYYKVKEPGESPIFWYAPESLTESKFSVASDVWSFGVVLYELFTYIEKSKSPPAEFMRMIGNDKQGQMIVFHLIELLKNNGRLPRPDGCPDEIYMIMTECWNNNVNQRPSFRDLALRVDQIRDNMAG
human JAK1 (a.a. 837-1142), sequence (P23458 849-1154): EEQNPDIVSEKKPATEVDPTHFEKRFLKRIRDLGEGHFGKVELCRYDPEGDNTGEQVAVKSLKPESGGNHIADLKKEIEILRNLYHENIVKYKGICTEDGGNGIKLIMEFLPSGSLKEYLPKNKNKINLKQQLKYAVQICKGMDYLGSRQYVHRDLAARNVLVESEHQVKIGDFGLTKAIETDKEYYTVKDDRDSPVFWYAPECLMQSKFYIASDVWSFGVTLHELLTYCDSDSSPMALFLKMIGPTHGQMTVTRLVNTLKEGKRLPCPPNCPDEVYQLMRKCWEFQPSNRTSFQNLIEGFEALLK

`N#CC[C@]1(n2cc(-c3ncnc4[nH]ccc34)cn2)C[C@@H](N2CCN(C(=O)c3nc(C(F)(F)F)cs3)CC2)C1` [Example 13a, [cis-1-[4-(7H-pyrrolo[2,3-d]pyrimidin-4-yl)-1H-pyrazol-1-yl]-3-(4-{[4-(trifluoromethyl)-1,3-thiazol-2-yl]carbonyl}piperazin-1-yl)cyclobutyl]acetonitrile]: the IC50 was 0.025 to 0.1 µM at JAK2 (a.a. 828-1132) (Table A) and below 0.01 µM in test [1] (Table A).
Regarding `N#CC[C@]1(n2cc(-c3ncnc4[nH]ccc34)cn2)C[C@H](N2CCN(C(=O)c3nc(C(F)(F)F)cs3)CC2)C1` [Example 13b, [trans-1-[4-(7H-pyrrolo[2,3-d]pyrimidin-4-yl)-1H-pyrazol-1-yl]-3-(4-{[4-(trifluoromethyl)-1,3-thiazol-2-yl]carbonyl}piperazin-1-yl)cyclobutyl]acetonitrile], the IC50 at JAK2 (a.a. 828-1132) (Table B) is 0.025 to 0.1 µM; in test [1] (Table B), below 0.01 µM.
As to `N#CC[C@]1(n2cc(-c3ncnc4[nH]ccc34)cn2)C[C@@H](N2CCN(C(=O)c3cncc(C(F)(F)F)n3)CC2)C1` [Example 14a, [cis-1-[4-(7H-pyrrolo[2,3-d]pyrimidin-4-yl)-1H-pyrazol-1-yl]-3-(4-{[6-(trifluoromethyl)pyrazin-2-yl]carbonyl}piperazin-1-yl)cyclobutyl]acetonitrile], the IC50 at JAK2 (a.a. 828-1132) (Table A) is 0.025 to 0.1 µM; in test [1] (Table A), below 0.01 µM.
Turning to `N#CC[C@]1(n2cc(-c3ncnc4[nH]ccc34)cn2)C[C@H](N2CCN(C(=O)c3cncc(C(F)(F)F)n3)CC2)C1` [Example 14b, [trans-1-[4-(7H-pyrrolo[2,3-d]pyrimidin-4-yl)-1H-pyrazol-1-yl]-3-(4-{[6-(trifluoromethyl)pyrazin-2-yl]carbonyl}piperazin-1-yl)cyclobutyl]acetonitrile], the IC50 on JAK2 (a.a. 828-1132) (Table B) was 0.025 to 0.1 µM; in test [1] (Table B), below 0.01 µM.
With `N#CC[C@]1(n2cc(-c3ncnc4[nH]ccc34)cn2)C[C@@H](N2CCN(C(=O)c3ccc(F)c(F)c3)CC2)C1` [Example 15a, {cis-3-[4-(3,4-difluorobenzoyl)piperazin-1-yl]-1-[4-(7H-pyrrolo[2,3-d]pyrimidin-4-yl)-1H-pyrazol-1-yl]cyclobutyl}acetonitrile], the IC50 at JAK2 (a.a. 828-1132) (Table A) was 0.025 to 0.1 µM; in test [1] (Table A), below 0.01 µM.
Turning to `N#CC[C@]1(n2cc(-c3ncnc4[nH]ccc34)cn2)C[C@H](N2CCN(C(=O)c3ccc(F)c(F)c3)CC2)C1` [Example 15b, {trans-3-[4-(3,4-difluorobenzoyl)piperazin-1-yl]-1-[4-(7H-pyrrolo[2,3-d]pyrimidin-4-yl)-1H-pyrazol-1-yl]cyclobutyl}acetonitrile], the IC50 at JAK2 (a.a. 828-1132) (Table B) is 0.01 to 0.025 µM; in test [1] (Table B), below 0.01 µM.
For `N#CC[C@]1(n2cc(-c3ncnc4[nH]ccc34)cn2)C[C@@H](N2CCN(Cc3c(F)ccc(F)c3Cl)CC2)C1` [Example 16a, {cis-3-[4-(2-chloro-3,6-difluorobenzyl)piperazin-1-yl]-1-[4-(7H-pyrrolo[2,3-d]pyrimidin-4-yl)-1H-pyrazol-1-yl]cyclobutyl}acetonitrile], the IC50 on JAK2 (a.a. 828-1132) (Table A) was 0.01 to 0.025 µM; in test [1] (Table A) it was below 0.01 µM.
For `N#CC[C@]1(n2cc(-c3ncnc4[nH]ccc34)cn2)C[C@H](N2CCN(Cc3c(F)ccc(F)c3Cl)CC2)C1` [Example 16b, {trans-3-[4-(2-chloro-3,6-difluorobenzyl)piperazin-1-yl]-1-[4-(7H-pyrrolo[2,3-d]pyrimidin-4-yl)-1H-pyrazol-1-yl]cyclobutyl}acetonitrile], the results for the IC50 (on JAK2 (a.a. 828-1132) (Table B); in test [1] (Table B)) were 0.025 to 0.1 µM and below 0.01 µM, respectively.
As for `N#CC[C@]1(n2cc(-c3ncnc4[nH]ccc34)cn2)C[C@@H](N2CCN(C(=O)c3cc(F)cc(C(F)(F)F)c3)CC2)C1` [Example 17, {cis-3-{4-[3-fluoro-5-(trifluoromethyl)benzoyl]piperazin-1-yl}-1-[4-(7H-pyrrolo[2,3-d]pyrimidin-4-yl)-1H-pyrazol-1-yl]cyclobutyl}acetonitrile], the IC50 on JAK2 (a.a. 828-1132) (Table A) is 0.025 to 0.1 µM; in test [1] (Table A), below 0.01 µM.
`N#CC[C@]1(n2cc(-c3ncnc4[nH]ccc34)cn2)C[C@H](N2CCN(C(=O)c3ccc(C(F)(F)F)cc3F)CC2)C1` [Example 18, {trans-3-{4-[2-fluoro-4-(trifluoromethyl)benzoyl]piperazin-1-yl}-1-[4-(7H-pyrrolo[2,3-d]pyrimidin-4-yl)-1H-pyrazol-1-yl]cyclobutyl}acetonitrile 2.3×(trifluoroacetate) Salt]: the IC50 on JAK2 (a.a. 828-1132) (Table B) was 0.01 to 0.025 µM; in test [1] (Table B), below 0.01 µM.
As to `N#CC[C@]1(n2cc(-c3ncnc4[nH]ccc34)cn2)C[C@H](N2CCN(C(=O)N3CCCC3)CC2)C1` [Example 19, {trans-3-[4-(pyrrolidin-1-ylcarbonyl)piperazin-1-yl]-1-[4-(7H-pyrrolo[2,3-d]pyrimidin-4-yl)-1H-pyrazol-1-yl]cyclobutyl}acetonitrile], the IC50 at JAK2 (a.a. 828-1132) (Table B) was above 0.1 µM; in test [1] (Table B), 0.01 to 0.025 µM.
Consider `N#CC[C@]1(n2cc(-c3ncnc4[nH]ccc34)cn2)C[C@@H](N2CCN(C(=O)c3cccc(C(F)(F)F)n3)CC2)C1` [Example 20a, {cis-1-[4-(7H-pyrrolo[2,3-d]pyrimidin-4-yl)-1H-pyrazol-1-yl]-3-(4-{[6-(trifluoromethyl)pyridin-2-yl]carbonyl}piperazin-1-yl)cyclobutyl}acetonitrile], for which the IC50 is 0.025 to 0.1 µM on JAK2 (a.a. 828-1132) (Table A) and below 0.01 µM in test [1] (Table A).
For `N#CC[C@]1(n2cc(-c3ncnc4[nH]ccc34)cn2)C[C@H](N2CCN(C(=O)c3cccc(C(F)(F)F)n3)CC2)C1` [Example 20b, {trans-1-[4-(7H-pyrrolo[2,3-d]pyrimidin-4-yl)-1H-pyrazol-1-yl]-3-(4-{[6-(trifluoromethyl)pyridin-2-yl]carbonyl}piperazin-1-yl)cyclobutyl}acetonitrile], the half-inhibitory concentration (IC50) is 0.025 to 0.1 µM at JAK2 (a.a. 828-1132) (Table B) and below 0.01 µM in test [1] (Table B).
For `N#CC[C@]1(n2cc(-c3ncnc4[nH]ccc34)cn2)C[C@@H](N2CCN(C(=O)c3cccc(C(F)F)n3)CC2)C1` [Example 21a, {cis-3-(4-{[6-(difluoromethyl)pyridin-2-yl]carbonyl}piperazin-1-yl)-1-[4-(7H-pyrrolo[2,3-d]pyrimidin-4-yl)-1H-pyrazol-1-yl]cyclobutyl}acetonitrile], the figures for the IC50 (at JAK2 (a.a. 828-1132) (Table A); in test [1] (Table A)) were 0.025 to 0.1 µM and below 0.01 µM, respectively.
Consider `N#CC[C@]1(n2cc(-c3ncnc4[nH]ccc34)cn2)C[C@H](N2CCN(C(=O)c3cccc(C(F)F)n3)CC2)C1` [Example 21b, {trans-3-(4-{[6-(difluoromethyl)pyridin-2-yl]carbonyl}piperazin-1-yl)-1-[4-(7H-pyrrolo[2,3-d]pyrimidin-4-yl)-1H-pyrazol-1-yl]cyclobutyl}acetonitrile], for which the IC50 on JAK2 (a.a. 828-1132) (Table B) is 0.01 to 0.025 µM; in test [1] (Table B), below 0.01 µM.
Turning to `N#CC[C@]1(n2cc(-c3ncnc4[nH]ccc34)cn2)C[C@@H](N2CCN(C(=O)c3cccc(C(F)(F)F)c3F)CC2)C1` [Example 22, {cis-3-{4-[2-fluoro-3-(trifluoromethyl)benzoyl]piperazin-1-yl}-1-[4-(7H-pyrrolo[2,3-d]pyrimidin-4-yl)-1H-pyrazol-1-yl]cyclobutyl}acetonitrile], the 50% inhibitory concentration (IC50) was 0.025 to 0.1 µM on JAK2 (a.a. 828-1132) (Table A) and below 0.01 µM in test [1] (Table A).
In the case of `N#CC[C@]1(n2cc(-c3ncnc4[nH]ccc34)cn2)C[C@@H](N2CCN(Cc3cncc(F)c3)CC2)C1` [Example 23a, {cis-3-{4-[(5-fluoropyridin-3-yl)methyl]piperazin-1-yl}-1-[4-(7H-pyrrolo[2,3-d]pyrimidin-4-yl)-1H-pyrazol-1-yl]cyclobutyl}acetonitrile], the IC50 on JAK2 (a.a. 828-1132) (Table A) was above 0.1 µM; in test [1] (Table A), 0.01 to 0.025 µM.
For `N#CC[C@]1(n2cc(-c3ncnc4[nH]ccc34)cn2)C[C@H](N2CCN(Cc3cncc(F)c3)CC2)C1` [Example 23b, {trans-3-{4-[(5-fluoropyridin-3-yl)methyl]piperazin-1-yl}-1-[4-(7H-pyrrolo[2,3-d]pyrimidin-4-yl)-1H-pyrazol-1-yl]cyclobutyl}acetonitrile], the values for the IC50 (at JAK2 (a.a. 828-1132) (Table B); in test [1] (Table B)) were 0.025 to 0.1 µM and below 0.01 µM, respectively.
Take `CC(C)c1nccc(C(=O)N2CCN([C@H]3C[C@@](CC#N)(n4cc(-c5ncnc6[nH]ccc56)cn4)C3)CC2)n1` [Example 24a, {cis-3-{4-[(2-isopropylpyrimidin-4-yl)carbonyl]piperazin-1-yl}-1-[4-(7H-pyrrolo[2,3-d]pyrimidin-4-yl)-1H-pyrazol-1-yl]cyclobutyl}acetonitrile]: the IC50 on JAK2 (a.a. 828-1132) (Table A) was above 0.1 µM; in test [1] (Table A) it was 0.01 to 0.025 µM.
On to `CC(C)c1nccc(C(=O)N2CCN([C@H]3C[C@](CC#N)(n4cc(-c5ncnc6[nH]ccc56)cn4)C3)CC2)n1` [Example 24b, {trans-3-{4-[(2-isopropylpyrimidin-4-yl)carbonyl]piperazin-1-yl}-1-[4-(7H-pyrrolo[2,3-d]pyrimidin-4-yl)-1H-pyrazol-1-yl]cyclobutyl}acetonitrile], for which the IC50 fell in the range of 0.025 to 0.1 µM at JAK2 (a.a. 828-1132) (Table B) and 0.01 to 0.025 µM in test [1] (Table B).
As to `N#CC[C@]1(n2cc(-c3ncnc4[nH]ccc34)cn2)C[C@H](N2CCN(C(=O)N3CCCCC3)CC2)C1` [Example 25, {trans-3-[4-(piperidin-1-ylcarbonyl)piperazin-1-yl]-1-[4-(7H-pyrrolo[2,3-d]pyrimidin-4-yl)-1H-pyrazol-1-yl]cyclobutyl}acetonitrile], the IC50 at JAK2 (a.a. 828-1132) (Table B) is above 0.1 µM; in test [1] (Table B) it was 0.025 to 0.1 µM.
As to `N#CC[C@]1(n2cc(-c3ncnc4[nH]ccc34)cn2)C[C@@H](N2CCN(C(=O)c3ccc(F)c(OC(F)(F)F)c3)CC2)C1` [Example 26, {cis-3-{4-[4-fluoro-3-(trifluoromethoxy)benzoyl]piperazin-1-yl}-1-[4-(7H-pyrrolo[2,3-d]pyrimidin-4-yl)-1H-pyrazol-1-yl]cyclobutyl}acetonitrile], the half-inhibitory concentration (IC50) at JAK2 (a.a. 828-1132) (Table A) lay in the range of 0.025 to 0.1 µM; in test [1] (Table A) it was 0.01 to 0.025 µM.
